Entries after “also recorded” stand apart in the source; their conditions may differ.
How the values were obtained:
hPSC-derived NSCs = experiment: Ventral regional identity of hPSC-derived NSCs at 9 DDC in dSMADi+SAG conditions (NKX2.1, LMX1A, PHOX2B, NKX2.2); format: cell-based, human; details: for identity imposed by RA analogue with inhibition of CYP26 activity: 500 nM analogue for 48-hours plus 500 nM R115866, 9 DDC; for identity imposed by RA analogue: 500 nM for 48-hours; for identity imposed by RA analogue / identity of NSCs: dSMADi+SAG; for identity imposed by RA analogue / identity of NSCs / identity of cells after inhibiting CYP26 activity: 9 DDC
CYP26 = details: cited from earlier work
β-catenin = experiment: β-CATENIN nuclear levels in cultures at 2 DDC; format: cell-based, human; details: dSMADi+SAG
From the text: FIG. 2: Specification of NSC with ventral midbrain identity using RA and SHH signaling. (a) Schematic of hPSCs differentiation with timeline of treatment with RA and activator of SHH signaling (SAG) (top). Immunocytochemistry for indicated markers at 9 DDC in cultures differentiated in dSMADi+SAG-condition and pulsed with RA for 1-, 2- or 4-days (bottom). (b) Relative gene expression (FPKM) of indicated genes in 9 DDC cultures differentiated in dSMADi+SAG-conditions and treated with RA for the indicated time. (c) Heatmap and hierarchical clustering of differentially expressed genes of 9 DDC cultures differentiated in dSMADi+SAG-condition and treated with RA for the indicated time. (d) Schematic of gene expression profiles defining distinct ventral progenitors in the diencephalon (Di), midbrain (MB) and hindbrain (HB) positions. (e) Expression of genes associated with the indicated regional progenitors at 14 DDC in cultures differentiated in dSMADi+SAG+RA^2D condition. (f) Immunocytochemistry for β-CATENIN (left) and boxplots of β-CATENIN nuclear levels (right) in cultures at 2 DDC differentiated in dSMADi+SAG-condition (control) and treated with RA or CHIR99021. Boxplot, whiskers define 5th and 95th percentile. Asterisks, Student t test; **p<0.01, ***p<0.001. (g) Immunocytochemistry for the indicated markers in cultures at 14 DDC differentiated in dSMADi+SAG+RA^2D condition. […]

[1] = tested on: hPSC-derived vMB progenitors; experiment: Neurogenesis and mDA neuron yield in differentiating hPSC cultures (HuCD, TuJ1, TH, GABA immunocytochemistry, electrophysiology); format: cell-based, human; details: with SAG
From the text: A unique feature of mDA neurons is that they originate from initially non-neuronal floor plate (FP) cells at the ventral midline of the MB, and progenitors must acquire neuronal potential prior to differentiation into neurons^30,44. Few markers distinguish between these states, but downregulation of SHH and upregulation pro-neural bHLH proteins over time correlate with this transition^44. […] In RA^2D+SAG cultures at 21 DDC, ˜30% of DAPI^+ cells accounted for HuCD^+ neurons (FIG. 4d) and many of these had initiated expression of TH (FIG. 4c). When we instead used CHIR99021+SAG to specify LMX1A^+/NKX2.1^− vMB progenitors (FIG. 3b), cells initiated neurogenesis at around 17 DDC (FIG. 4c, d) which is consistent with previous studies^9,13. At 21 DDC, HuCD^+ neurons constituted ˜10% of total cells and few neurons expressed TH (FIG. 4c, d).
TH^+ neurons acquired a progressively more advanced neuronal morphology with a progressive outgrowth of TH^+ axonal processes in RA^2D+SAG cultures between 30-45 DDC (FIG. 4e, g, h; FIG. 8f (Supplementary FIG. 2f)). TH^+ neurons expressed mDA neuron markers LMX1A, LMX1B, FOXA2, NURR1, and OTX2 at 30-35 DDC (FIG. 4e). […] TH^+ neurons also expressed the mature neuronal marker SYNAPTOPHYSIN and the monoaminergic marker VMAT2 (FIG. 40. A subset of cells expressed GIRK2 or CALBINDIN indicating the presence of both A9- and A10-like subtypes of mDA neurons^45 (FIG. 4f). At 35 DDC, ˜80% of neurons expressed TH^+ which corresponded to ˜65% of total DAPI^+ cells (FIG. 4i, j). ˜10% of neurons expressed GABA (FIG. 4i, j), and some of these co-expressed TH (FIG. 10c (Supplementary FIG. 4c)). Only rare neurons expressing 5-HT or the MN marker PERIPHERIN were detected (FIG. 4i, j). High performance liquid chromatography (HPLC) analyses at 42 DDC established that neurons produced and released dopamine (FIG. 4k, I) but not serotonin (5-HT) or noradrenaline (NA) (FIG. 4k). […] Very few cells expressed Ki67 or phospho-histone H3 at 35-40 DDC indicating low mitotic activity after long-term culturing of cells (FIG. 4i). Functional maturation of mDA neurons in vitro can be monitored by determining the time when hPSC-derived mDA neurons acquire spontaneous action potentials, evoked action potentials and voltage-dependent Na^+ and K^+ currents, and these traits were previously reported to be attained after ˜60 days of culture of FACS-enriched mDA neurons (25+36 days: before/after sorting) using current state-of-the-art protocols^7. […] Neurons showing both spontaneous (FIG. 4m) and evoked action potentials (FIG. 4n) could be recorded at 40 DDC.
80-90% confluent PSCs cultures were rinsed twice with PBS, treated with EDTA (0.5 mM in PBS) for 5-7 min, and resuspended into single cell suspension in PBS. Cells were spin down at 400 g and resuspended in N2B27 medium (DMEM/F12: Neurobasal (1:1), 0.5×N2 and 0.5×B27 (plus vitamin A) supplements, 1×nonessential amino acids, 1% GlutaMAX, 55 μM β-mercaptoethanol-all from Thermo Fisher Scientific) containing 5 μM SB431542 (Miltenyi Biotech) and 2.5 μM DMH1 (Santa Cruz Biotech) (dual SMAD inhibition), and 10 μM ROCK inhibitor (for the first 48 hours after seeding). Cells were seeded on VTN (2 μg/cm^2) and Fibronectin (FN) (2 μg/cm^2) (Sigma) coated surface at a density of 60,000-80,000 cells/cm^2 for RA- and RA-analogues based experiments, and 20,000 cells/cm^2 for CHIR99021 experiments. SAG1.3 (Santa Cruz Biotechnology), CHIR99021 (Miltenyi Biotech), all-trans RA, 9-cis RA, 13-cis RA, Tazarotenic acid, R115866 (all Sigma), EC23 (Amsbio) were used at concentrations and time points described in the result section. For mDA neuron differentiation (see schematic drawing FIG. 4) neural progenitors were mechanically dissociated at 9 DDC with Stem Cell Passaging Tool (Thermo Fisher Scientific) and seeded at 1:3 ratio in N2B27 medium containing 10 μM ROCK inhibitor (for first 48 hours after dissociation) on VTN and FN coated surfaces. […]

[2] = tested on: hPSC-derived ventral midbrain dopaminergic progenitors; experiment: Specification of caudal midbrain identity (EN1 immunocytochemistry); format: cell-based, human; details: RA^2D+SAG plus 5 μM CHIR99021 between 4-9DDC
Experimental: (a) (a) Immunocytochemical analysis of ventral MB progenitor identities at 14 DDC. […] Nuclei of cells visualized with DAPI staining. (b) Immunocytochemistry of dopaminergic neuron marker TH and caudal midbrain marker EN1 expression in 40 DDC cultures differentiated in indicated conditions.
Cells were fixed for 12 min at room temperature (RT) in 4% paraformaldehyde in PBS, rinsed 3 times in PBST (PBS with 0.1% Triton-X100), and blocked for 1 hour at RT with blocking solution (3% FCS/0.1% Triton-X100 in PBS). Cells were then incubated with primary antibodies overnight at 4° C., followed by incubation with fluorophore-conjugated secondary antibodies for 1 hour at RT. Both primary and fluorophore-conjugated secondary antibodies were diluted in blocking solution. Primary antibodies used are listed in Supplementary Table 1. Appropriate Alexa (488, 555, 647)-conjugated secondary antibodies (Molecular Probes) were used.
Mechanisms underlying specification of midbrain dopamine neuron subtypes remains poorly resolved, but is likely to involve sub-patterning of ventral midbrain dopaminergic progenitors along the mediolateral and rostro-caudal axes of the midbrain (Brignani, S, and Pasterkamp, R. J., Front. Neuroanat. 11, 1-18 (2017)). WNT1 signaling emanating from the isthmic organizer at the midbrain-hindbrain boundary establish polarity of midbrain progenitors along the rostro-caudal axis by inducing a caudal^HIGH-to-rostral^LOW expression gradient of the homeodomain proteins EN1 and EN2 (Wurst, W. and Bally-Cuif, L. Nat. Rev. Neuroscience 2, 99-108 (2001)).

## CC1=C(/C=C/C(C)=C\C=C\C(C)=C\C(=O)O)C(C)(C)CCC1 [9-cis RA, 9-cis-Retinoic acid]
hPSC-derived NSCs
  identity imposed by RA analogue with inhibition of CYP26 activity: shift into a PHOX2B^+ HB identity
  identity imposed by RA analogue: LMX1A^+/NKX2.1^− vMB identity; also recorded: LMX1A+/NKX2.1− vMB identity
CYP26
  susceptibility to CYP26-mediated oxidation: substrates for CYP26-mediated oxidation

## CC1=C(/C=C/C(C)=C/C=C/C(C)=C\C(=O)O)C(C)(C)CCC1 [13-cis RA, 13-cis-Retinoic acid]
hPSC-derived NSCs
  identity imposed by RA analogue with inhibition of CYP26 activity: shift into a PHOX2B^+ HB identity
  identity imposed by RA analogue: LMX1A^+/NKX2.1^− vMB identity; also recorded: LMX1A+/NKX2.1− vMB identity
CYP26
  susceptibility to CYP26-mediated oxidation: substrates for CYP26-mediated oxidation

## Cc1c[nH]c(-c2cnc(NCCNc3ccc(C#N)cn3)nc2-c2ccc(Cl)cc2Cl)n1 [CHIR99021]
hPSC-derived NSCs; 1 μM
  identity of NSCs: LMX1A^+/NKX2.1^− identity
hPSC-derived NSCs; 0.8 and 0.6 μM
  identity of NSCs: diencephalic LMX1A^+/NKX2.1^+ character
hPSC-derived NSCs; 1.2 and 1.4 μM
  identity of NSCs: NKX2.2^+/LMX1A^− presumptive HB identity
β-catenin
  β-catenin in nuclei: translocation of β-catenin into nuclei
[1]; 21 DDC
  HuCD+ neurons as share of total DAPI+ cells: ~10%
[1]
  time of initiation of neurogenesis (first neurons): around 17 DDC
[2]; 14DDC
  identity of ventral midbrain progenitors (EN1): a majority of LMX1A^+/OTX2^+ cells also expressed EN1
[2]; 40DDC
  EN1 expression in TH+ dopamine neurons: a large fraction of TH^+ dopamine neurons expressed EN1

## CC1(C)CCC(C)(C)c2cc(C#Cc3ccc(C(=O)O)cc3)ccc21 [EC23]
hPSC-derived NSCs; 200 nM EC23, EC23^1D+SAG or EC23^2D+SAG, with or without inhibition of CYP26
  identity imposed by EC23: PHOX2B^+ HB-identity; also recorded: hindbrain identity
hPSC-derived NSCs; FIG. 9c titration
  EC23 concentration imposing a vMB-identity: 10 nM
hPSC-derived NSCs; reduced EC23 concentration
  duration of EC23 treatment required to induce LMX1A+/NKX2.1− vMB cells: 24 h
hPSC-derived NSCs; titration, relative to 200 nM, treatment for 24 hours
  reduction in concentration required for EC23 to induce LMX1A+/NKX2.1− vMB cells: 20 fold

## CCC(CC)C(c1ccc(Nc2nc3ccccc3s2)cc1)n1cncn1 (stereo not shown) [R115866]
hPSC-derived NSCs; 100 nM R115866, RA+SAG cultures
  identity of cells after inhibiting CYP26 activity: mix of LMX1A^+/NKX2.1^− vMB cells and PHOX2B^+ HB cells
hPSC-derived NSCs; 500 nM R115866 between 0-3 DDC, RA^1D+SAG or RA^2D+SAG cultures
  identity of cells after inhibiting CYP26 activity: PHOX2B^+ HB-identity
hPSC-derived NSCs; R115866 and SAG only (no RA)
  identity of cells after inhibiting CYP26 activity: did not suppress NKX2.1^+ FB-fate

## CNC1CCC(N(Cc2cccc(-c3ccncc3)c2)C(=O)c2sc3ccccc3c2Cl)CC1 (stereo not shown) [SAG]
hPSC-derived NSCs; dSMADi, SAG from day 0, 9 DDC
  SAG concentration for effective induction of vMB NSC identity: 50 nM

## CC1(C)CCSc2ccc(C#Cc3ccc(C(=O)O)cn3)cc21 [tazarotenic acid]
hPSC-derived NSCs
  identity imposed by RA analogue with inhibition of CYP26 activity: shift into a PHOX2B^+ HB identity
  identity imposed by RA analogue: LMX1A^+/NKX2.1^− vMB identity; also recorded: LMX1A+/NKX2.1− vMB identity
CYP26
  susceptibility to CYP26-mediated oxidation: substrates for CYP26-mediated oxidation

— patent US20230233617A1, “METHODS FOR DIFFERENTIATING STEM CELLS INTO DOPAMINERGIC PROGENITOR CELLS” (JZ CELL TECHNOLOGIES AB, priority 2020, published 2023)
